{"source": "patent US20090187484A1", "about": "“Soil treatments with carbon dioxide” (Cleareso, LLC, priority 2008, published 2009)", "key": {"[1]": {"system": "Larvae of the root weevil, Diaprepes abbreviatus", "assay": "Immersion of root weevil larvae in test solutions (mortality, moribund effect)", "assay_type": "in vivo", "settings": "for Mortality of larvae with individual compounds and formulations: five larvae; for black residue across all treatments: control to 5.0%; for toxicity judgement for the larvae: 0.1 to 5.0%, test terminated at 24 hours", "description": "Larvae and pupae of the root weevil, Diaprepes abbreviatus, were immersed in a variety of compounds to understand their effect on the activity of this pest.\nThe criterion for toxicity with these larvae is the lack of nipping behavior and its consequent black residue from blood loss and the lack of spontaneous movement.\nExperimental Design. Larvae and pupae were received from the Florida Dept. of Agriculture's rearing program in Gainesville, Fla. Larvae were shipped as 50-day larvae (larvae that will pupate in about 10 days). Both larvae and pupae were held at 27° C. in 12 hour cycles of light and dark in their containers as separate individuals until experimentation began.\nIn the testing, five larvae or pupae were removed from their rearing cups and placed in a 150 ml glass beaker. In testing the Soy Technologies Manufacturer's Base (SMTB), a 5% solution was mixed in either water or carbonated water by adding 10 ml of SMTB to a 250 ml beaker and then adding water or carbonated water to the 200 ml mark. The solutions were then immediately added to the beaker with the larvae or pupae to cover them. Controls with water or carbonated water alone were also included. There was a single tray of five larvae for each treatment at each time period and a five larvae control for each time period. Larvae were removed and placed on plastic weighing trays after 5,10, 15, 20, 25, and 30 minutes. At the end of 30 minutes all organisms were assessed for mortality. Trays with larvae were left on the bench tip for 24 hours and then another mortality assessment was made.\nConcentration Series. With the results from the time series above, larvae were held in different concentrations of STMB for 30 minutes. After 30 minutes, solutions were poured off and the trays wiped dry. Assessments were made at 24 or 48 hours with a few assessments at 72 hours dependent on effects. Treatments were: water or carbonated water as controls, and 0.1, 0.5, 1.0, 2.0, 3.0, 4.0 and 5.0% concentrations in either distilled water or carbonated water. Five larvae were used for each control and treatment. Pupae were not used in this assessment."}, "[2]": {"assay": "Solubility and appearance of the aqueous test preparations", "assay_type": "physicochemical"}}}
{"compound": "Polyoxyethylene 10 tridecylether [24938-91-8]", "values": [{"measurement": "black residue", "setting": "[1]; 3 and 5% treatments, 48 hours", "value": "less black residue"}, {"measurement": "Mortality of larvae with individual compounds and formulations", "setting": "[1]; concentration 0.1 percent, 24 hours", "value": 0}, {"measurement": "Mortality of larvae with individual compounds and formulations", "setting": "[1]; concentration 0.1 percent, 48 hours", "value": 0}, {"measurement": "Mortality of larvae with individual compounds and formulations", "setting": "[1]; concentration 0.1 percent, 72 hours", "value": 0}, {"measurement": "Mortality of larvae with individual compounds and formulations", "setting": "[1]; concentration 1.0 percent, 24 hours", "value": 2}, {"measurement": "Mortality of larvae with individual compounds and formulations", "setting": "[1]; concentration 1.0 percent, 48 hours", "value": 2}, {"measurement": "Mortality of larvae with individual compounds and formulations", "setting": "[1]; concentration 1.0 percent, 72 hours", "value": 2}, {"measurement": "Mortality of larvae with individual compounds and formulations", "setting": "[1]; concentration 3.0 percent, 24 hours", "value": 0}, {"measurement": "Mortality of larvae with individual compounds and formulations", "setting": "[1]; concentration 3.0 percent, 48 hours", "value": 0}, {"measurement": "Mortality of larvae with individual compounds and formulations", "setting": "[1]; concentration 3.0 percent, 72 hours", "value": 0}, {"measurement": "Mortality of larvae with individual compounds and formulations", "setting": "[1]; concentration 5.0 percent, 24 hours", "value": 0}, {"measurement": "Mortality of larvae with individual compounds and formulations", "setting": "[1]; concentration 5.0 percent, 48 hours", "value": 3}, {"measurement": "Mortality of larvae with individual compounds and formulations", "setting": "[1]; concentration 5.0 percent, 72 hours", "value": 3}, {"measurement": "black residue across all treatments", "setting": "[1]; 24 hours", "value": "gradation of black residue from control to 5.0 with 5.0 having the least"}]}
{"compound": "COC(=O)CCCC(=O)OC", "note": "[1119-40-0, pentanedioic acid, dimethyl ester]", "values": [{"measurement": "survival of larvae after 30 minutes", "setting": "[1]; 0.1 to 5.0% treatments, end of 30 minutes immersion", "value": "All larvae were alive"}, {"measurement": "black residue", "setting": "[1]; 3 and 5% treatments, 48 hours", "value": "less black residue than the control"}]}
{"compound": "COC(=O)CCC(=O)OC", "note": "[106-65-0, butanedioic acid, dimethyl ester]", "values": [{"measurement": "toxicity judgement for the larvae", "setting": "[1]", "value": "non-toxic"}, {"measurement": "black residue across all treatments", "setting": "[1]; 24 hours", "value": "all treatments looked just like the control"}, {"measurement": "solubility of aqueous preparation", "setting": "[2]; 0.1% concentration", "value": "soluble"}, {"measurement": "solubility of aqueous preparation", "setting": "[2]; 1.0% concentration", "value": "just soluble"}, {"measurement": "solubility of aqueous preparation", "setting": "[2]; 3.0% concentration", "value": "not soluble"}, {"measurement": "solubility of aqueous preparation", "setting": "[2]; 5.0% concentration", "value": "not soluble"}]}
{"compound": "COC(=O)CCCCC(=O)OC", "note": "[627-93-0, Dimethyl hexanedioate]", "values": [{"measurement": "appearance (black residue) compared with control", "setting": "[1]; 0.1% treatment, 24 hours", "value": "looked identical"}, {"measurement": "toxicity judgement for the larvae", "setting": "[1]", "value": "non-toxic"}, {"measurement": "black residue", "setting": "[1]; 5.0% treatment, 24 hours", "value": "only slightly less black residue than the 3.0% treatment"}, {"measurement": "solubility of aqueous preparation", "setting": "[2]; 0.1% concentration", "value": "soluble"}, {"measurement": "solubility of aqueous preparation", "setting": "[2]; 1.0% concentration", "value": "not completely soluble"}, {"measurement": "solubility of aqueous preparation", "setting": "[2]; 3.0% concentration", "value": "not completely soluble"}, {"measurement": "solubility of aqueous preparation", "setting": "[2]; 5.0% concentration", "value": "not completely soluble"}]}
